Experimental data reported in the METLIN SMRT retention time set (Domingo-Almenara et al. 2019).

Assay: gradient 5% acetonitrile 3 min, to 50% in 2 min, to 85% in 15 min, held 3 min, 100 µL/min
Conditions: column: Zorbax Extend-C18 2.1 x 50 mm; eluents: water / acetonitrile, 0.1% formic acid
How it was run: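 The system's dead and dwell volumes were 40 μL and 900 μL, with a Zorbax Extend-C18 column (2.1 × 50 mm, 1.8 μm) run at 100 μL/min in water and acetonitrile containing 0.1% formic acid each. Pure standards were analyzed in mixtures of ~100 molecules by HPLC–quadrupole time-of-flight mass spectrometry in positive and negative ionization mode. Retention time was assigned from computationally picked, manually inspected adduct peaks.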

RP-LC retention time [s] | SMILES
711 | COCCCNC(=O)c1ccc2c(c1)N(Cc1ccc(F)cc1)C(=O)CO2
1060 | Cc1nc(-c2csc(S(=O)(=O)N3CCCC(C(=O)NC4CCCCCCC4)C3)c2)no1 (configuration not stated)
599 | CCOC(=O)c1c(C)[nH]c(C)c1S(=O)(=O)NCC(=O)N1CCN(c2ccccn2)CC1
794 | Cc1cccc(CNC(=O)CC2CCN(C(=O)c3[nH]c(C)cc3C)CC2)c1
862 | Cc1ccc(CN2C(=O)C3(CCOCC3)CC2c2nnnn2C(C)(C)C)cc1C (configuration not stated)
754 | COC(=O)CNC(=O)N1CCCC1c1ccccc1Cl (configuration not stated)
703 | FC(F)(F)c1cccc(-c2ccc(CNCC3CCCO3)o2)c1 (configuration not stated)
900 | Cc1cccc(Sc2nccnc2N2CCC(C(=O)N3CCOCC3)CC2)c1
660 | COc1ccc(NC(=O)N2CCN(c3cc(-c4ccc(OC)c(OC)c4)ncn3)CC2)c(OC)c1
1280 | COc1ccc(-c2noc(-c3ccc(NC(=O)COc4ccc(Br)cc4)cc3)n2)cc1
851 | CCCCC(=O)Nc1ccc2nc(N3CCN(c4cc(Cl)ccc4C)CC3)cc(C(=O)O)c2c1
550 | O=C(Cn1cnc2ccccc21)NCCNc1cc(-n2cccn2)ncn1
771 | COc1cccc(Nc2c(-c3ccc(N(C)C)cc3)nc3cnccn23)c1
906 | Cn1nc(-c2nc(C3CC3)no2)c2c1CCN(C(=O)c1cccc(C(F)(F)F)c1)C2
823 | Cc1cccc(NC(=O)N(C)CCc2noc(COc3ccccc3F)n2)c1C
799 | O=C(C1CC1)N1CCc2sc(S(=O)(=O)Nc3ccc(F)cc3)cc2C1
696 | COc1ccccc1N1CCN(S(=O)(=O)c2cc3n(c2)CCCNC3=O)CC1
645 | CN1C(=O)c2ccccc2Sc2ccc(NC(=O)N3CCN(c4ccccn4)CC3)cc21
663 | Cc1cc2ccccc2n2c(SCC(=O)NCc3ccco3)nnc12
692 | O=C(O)c1cc(=O)c2cc(Cl)ccc2[nH]1
1010 | Cc1nc2cc(-c3noc(/C=C/c4ccco4)n3)ccc2o1
802 | COc1ccccc1OCC(=O)Nc1cc(-c2ccccn2)no1

RP-LC retention time [s] | SMILES
797 | O=C(CCc1nc2ccccc2n(CC(=O)Nc2ccc3c(c2)OCO3)c1=O)NCc1ccccc1
795 | O=c1c2cc3c(cc2nc(SCc2nc(-c4cccc(F)c4)no2)n1Cc1ccncc1)OCO3
985 | Cn1nc(-c2nnc(-c3ccc(F)cc3)o2)c2c1CCN(S(=O)(=O)c1ccc(F)cc1F)C2
778 | Cc1cc(NC(=O)C(C)C)nn1Cc1ccccc1
1080 | O=S(=O)(Cc1ccccc1Cl)N(CCc1cccs1)Cc1ccco1
643 | CN(CCCNC(=O)c1ccc2c(c1)N(C)C(=O)C1CCCCN21)Cc1ccccc1 (configuration not stated)
891 | CCn1ccc2sc(C)c(C(=O)NCc3ccc(Cl)cc3)c2c1=O
633 | CCCn1c(CCNC(=O)c2ccccc2)nc2cccnc21
740 | c1ccc(CN2CCc3c(sc4ncnc(N5CCOCC5)c34)C2)cc1
836 | CCC(=O)N(C1CCOCC1)C1CCN(S(=O)(=O)c2cccc(C)c2)CC1
703 | CCC(C)C(NC(=O)c1cccc(N(C)C)c1)C(=O)Nc1nc2ccccc2[nH]1 (configuration not stated)
865 | COc1ccc(N2CCN(c3ncc(C(=O)O)c(C(C)C)n3)CC2)cc1
845 | Cc1ccc(-c2noc(CSc3nc4cc5c(cc4c(=O)n3Cc3ccncc3)OCO5)n2)cc1
603 | Cn1cnnc1SCCNC(=O)c1ccc(OCC(=O)C2CC2)cc1
763 | CCc1cc(=O)n(CC(=O)Nc2cccc(F)c2)c(N2CCOCC2)n1
606 | O=C(Nc1cccc(F)c1)N1CCN(c2cc(-c3ccncc3)[nH]n2)CC1
566 | CCCN1CCN(C(=O)C2CC(=O)N(c3ccc4c(c3)CCN4C(=O)CC)C2)CC1 (configuration not stated)
1270 | Cc1nn(-c2nc(-c3ccccc3)cs2)c(C)c1CC(=O)Nc1cccc(C(F)(F)F)c1
926 | Nc1ccc(C(=O)Oc2ccc([N+](=O)[O-])cc2)cc1
567 | CCn1cnc(S(=O)(=O)N2CCC(C(=O)NCc3ccc(N(C)C)cc3)CC2)c1
714 | O=C(c1ccc(OCC2CCCN2C(=O)C2CC2)cc1)N1CCCC1 (configuration not stated)
726 | Cc1cccc(CC(=O)NC2CCN(c3cc(-c4cccs4)[nH]n3)C2)c1 (configuration not stated)

RP-LC retention time [s] | SMILES
611 | Cn1c(CCNC(=O)c2cccc(F)c2)nc2cccnc21
883 | COc1cccc(OC)c1C(=O)Nc1ccc2c(c1)Sc1ncccc1C(=O)N2C(C)C
932 | CC(C)(C)C(=O)N1CCCC1c1nc2ccccc2s1 (configuration not stated)
565 | CCN1CCN(CCNC(=O)C2CCCN(C(=O)c3[nH]c(C)c(C(=O)OC)c3C)C2)CC1 (configuration not stated)
617 | COc1ccc(NC(=O)CSc2ccc(N3CCCC(C(=O)NC4CC4)C3)nn2)cc1 (configuration not stated)
677 | CCn1nccc1C1CCCN1C(=O)c1c(Cl)cnn1C (configuration not stated)
598 | COC(=O)CNC(=O)NCCc1noc(C2CC2)n1
879 | COCCN1C(=O)c2ccccc2C(C(=O)NCc2ccc(F)cc2)C12CCCC2 (configuration not stated)
611 | Cc1ccc(NC(=O)C2(Cc3cccnc3)CCCCC(=O)N2)cc1 (configuration not stated)
702 | Cc1nc(N2CCOCC2)c2c(C(=O)NCc3ccc(F)cc3)c(C)oc2n1
848 | O=C(COc1ccccc1)N1CCc2nc(-c3ccc(Cl)cc3)ncc2C1
918 | O=C(NCCc1ccc(F)cc1)C(=O)Nc1ccc(Cl)cn1
800 | O=c1n(Cc2cccc(F)c2)nc2ccc(S(=O)(=O)N3CCOCC3)cn12
782 | COc1ccccc1CCC(=O)N1C[C@@H]2C[C@H](NC(=O)c3cccs3)[C@H]1C2
800 | CCn1nccc1C(=O)N1CC(Oc2ccc(-c3nc(C)no3)cc2)C1
711 | CN(C)c1ccccc1CN1CCCN(Cc2ccccc2N(C)C)C1c1ccncc1
647 | Cc1ccccc1-c1noc(CCc2nnc3ccc(N4CCN(c5ccccn5)CC4)nn23)n1
787 | COc1ccc(-n2c(=O)n(C)c(=O)c3cc(C(=O)Nc4ccccc4C(N)=O)cnc32)cc1
932 | CCc1nnc2ccc(-c3noc(Cc4ccc(Cl)cc4)n3)cn12
1130 | CCOc1ccc(-n2nnc(-c3nc(-c4cccc(OC)c4)cs3)c2N)cc1
739 | CCN1C(=O)c2cccc3c(NC(=O)c4c(F)cccc4F)ccc1c23
1300 | Cc1ccc(-c2csc(NC(=O)c3sc(-c4ccccc4)nc3C)n2)cc1

SMILES | RP-LC retention time [s]
Cc1ncc2c(n1)C[C@@H]1CC[C@H]2N1S(=O)(=O)Cc1ccccc1 | 706
